# Measured values published in patent US11603364B2, “Acyl hydrazone derivative compounds for treating disease” (Alterity Therapeutics Limited, priority 2020, dated 2023).
# Tested on: phospho-GSK-3β
# Assay: GSK 3b assay: Zn ionophore-enhanced phosphorylation of GSK-3β (AlphaScreen SureFire Phospho-GSK 3β (Ser9) kit) in SH-SY5Y cells
# Type: cell-based, human
# Conditions: test compound 2 μM + ZnCl2 5 μM, 2 h at 37° C.
# Method: The phosphorylation of GSK-3β is enhanced when Zn is imported into a cell by a Zn ionophore. This property was measured for the compounds of the current invention and the data presented relative to the know Zn ionophore PBT2 using the following protocol.
# The human neuroblastoma SH-SY5Y cells were obtained from Cell bank Australia (Catalogue number: 94030304). SH-SY5Y cell culture was maintained in DMEM/F12+15% FBS inside an incubator at 37° C. in the presence of 5% CO2. The cells were sub-cultured once a week and the media exchanged once during the week. Cells for the assay were plated at a density of 60,000 cells/well.
# Stock solutions of the samples were prepared as a 5 mM stock in DMSO and a stock solution of 1 mM ZnCl2/3 mM Glutamic acid was prepared in water. Immediately before use the compounds were diluted 1:10 with water before being added to Locke's buffer in a treatment tube. Samples were subsequently treated with either distilled water or the ZnCl2/Glutamic acid solution to yield a treatment solution which has a final concentration of the test compound at 2 μM+/−ZnCl2 at 5 μM.
# The culture media was aspirated from the wells and the media replaced with the treatment solution prepared above. In addition to the relative standard (PBT2+/−ZnCl2), control wells were also included consisting of +/−ZnCl2 at 5 μM with all treatments done in triplicate. The plate was incubated at 37° C. with the treatment solution for 2 h after which time the wells were aspirated and washed with sterile PBS.
# Measurement of the change of phospho-GSK-3β was determined using an AlphaScreen® SureFire® Phospho-GSK […] (Ser9) Kit with the cells being processed as per the manufacturer's instructions using an initial incubation of 2 h/24° C. and a final incubation of 16 h/24° C.
# The fluorescence was measured on an Enspire plate reader. […] Representative data is presented in Table 12 using the following ranges: A<50%, B 50-<100%, C 100-<150%, D>150%.
row,Compound,GSK-Zn (signal as % of the positive standard PBT2+ZnCl2)
1,COc1cc(C(=O)N/N=C(\C)c2ccc3ccccc3n2)ccc1O [Compound 87],C (C 100-<150%)
2,CC/C(=N\NC(=O)c1cccc(C)c1)c1ncccn1 [Compound 44],B (B 50-<100%)
3,"O=C(N/N=C1\CCCc2cccnc21)c1ccccc1O [Compound 12, (E)-N′-(6,7-dihydroquinolin-8(5H)-ylidene)-2-hydroxybenzohydrazide]",B (B 50-<100%)
4,Cc1cccc(C(=O)N/N=C\c2cn3ccccc3n2)c1 [Compound 121],A (A<50%)
5,"Cl.O=C(N/N=C1\CCCc2cccnc21)c1ccccc1OCCN1CCCC1 [Compound 41, (E)-N′-(6,7-Dihydroquinolin-8(5H)-ylidene)-2-(2-(pyrrolidin-1-yl)ethoxy)benzohydrazide hydrochloride]",A (A<50%)
6,COc1cccc(C(=O)NN=C(c2cccc(C)n2)c2cccc(C)n2)c1 [Compound 131],B (B 50-<100%)
7,C/C(=N\NC(=O)c1cc2ccccc2s1)c1cc(C)ccn1 [Compound 72],C (C 100-<150%)
8,Cc1cccc(C(=O)N/N=C\c2nc(C)c(C)s2)c1 [Compound 106],A (A<50%)
9,"CC/C(=N\NC(=O)c1snnc1C)c1ncccn1 [Compound 43, (E)-4-Methyl-N′-(1-(pyrimidin-2-yl)propylidene)-1,2,3-thiadiazole-5-carbohydrazide]",C (C 100-<150%)
10,COc1cc(C(=O)N/N=C2\CCCc3cccnc32)ccc1O [Compound 21],A (A<50%)
11,C/C(=N\NC(=O)c1cccc(C)c1)c1ccc2ccccc2n1 [Compound 81],C (C 100-<150%)
12,C/C(=N\NC(=O)c1cc2ccccc2s1)c1cccc(C)n1 [Compound 75],C (C 100-<150%)
13,C/C(=N\NC(=O)c1cccc(C)c1O)c1nc2ccccc2s1 [Compound 105],B (B 50-<100%)
14,CC/C(=N\NC(=O)c1cccc(C)c1O)c1ncccn1 [Compound 46],C (C 100-<150%)
15,O=C(N/N=C/c1nc2ccccc2s1)c1cc(Cl)ccc1O [Compound 115],A (A<50%)
16,"C/C(=N\NC(=O)c1snnc1C)c1nc(C)cs1 [Compound 100, (E)-4-Methyl-N′-(1-(4-methylthiazol-2-yl)ethylidene)-1,2,3-thiadiazole-5-carbohydrazide]",C (C 100-<150%)
17,"COc1ccc(C(=O)N/N=C2\CCc3cccnc32)cc1OC [Compound 38, (E)-N′-(5H-Cyclopenta[b]pyridin-7(6H)-ylidene)-3,4-dimethoxybenzohydrazide]",A (A<50%)
18,COc1cccc(C(=O)N/N=C(\C)c2ccc3ccccc3n2)c1 [Compound 78],C (C 100-<150%)
19,C/C(=N\NC(=O)c1cc(Cl)ccc1O)c1nc(C)cs1 [Compound 95],C (C 100-<150%)
20,Cc1cccc(C(=NNC(=O)c2cc(Cl)ccc2O)c2cccc(C)n2)n1 [Compound 128],D (D>150%)
21,Cc1cccc(C(=NNC(=O)c2cccc(C)c2O)c2cccc(C)n2)n1 [Compound 129],C (C 100-<150%)
22,Cc1cccc(C(=NNC(=O)c2ccc(N(C)C)cc2)c2cccc(C)n2)n1 [Compound 123],C (C 100-<150%)
23,COc1ccc(C(=O)NN=C(c2cccc(C)n2)c2cccc(C)n2)cc1OC [Compound 126],C (C 100-<150%)
24,Cc1cccc(C(=O)N/N=C/c2nccs2)c1O [Compound 119],A (A<50%)
25,C/C(=N\NC(=O)c1cccc(C)c1O)c1ccc(C)s1 [Compound 103],B (B 50-<100%)
26,CCOc1cccc(C(=O)NN=C(c2cccc(C)n2)c2cccc(C)n2)c1 [Compound 132],C (C 100-<150%)
27,CC/C(=N\NC(=O)c1cccc(OC)c1)c1ncccn1 [Compound 45],C (C 100-<150%)

row,Compound,GSK-Zn (signal as % of the positive standard PBT2+ZnCl2)
1,COc1cccc(C(=O)N/N=C(\C)c2cccc(C)n2)c1 [Compound 64],B (B 50-<100%)
2,O=C(N/N=C1\CCCc2cccnc21)c1ccc(C(F)(F)F)cc1 [Compound 20],A (A<50%)
3,C/C(=N\NC(=O)c1snnc1C)c1cc(C)ccn1 [Compound 73],C (C 100-<150%)
4,Cc1cccc(C(=NNC(=O)c2ccccc2F)c2cccc(C)n2)n1 [Compound 134],B (B 50-<100%)
5,COc1ccc(Cl)cc1C(=O)N/N=C1\CCCc2cccnc21 [Compound 17],A (A<50%)
6,O=C(N/N=C1\CCCc2cccnc21)c1cc(Cl)ccc1O [Compound 11],C (C 100-<150%)
7,C/C(=N\NC(=O)c1cc(Cl)ccc1O)c1ccc2ccccc2n1 [Compound 92],C (C 100-<150%)
8,O=C(N/N=C/c1nccs1)c1cc(Cl)ccc1O [Compound 109],B (B 50-<100%)
9,C/C(=N\NC(=O)c1ccccc1O)c1ccc2ccccc2n1 [Compound 76],C (C 100-<150%)
10,"C/C(=N\NC(=O)c1cc2ccccc2s1)c1ccccn1 [Compound 146, (E)-N′-(1-(Pyridin-2-yl)ethylidene)benzo[b]thiophene-2-carbohydrazide]",C (C 100-<150%)
11,Cc1cccc(C(=NNC(=O)c2ccccn2)c2cccc(C)n2)n1 [Compound 135],B (B 50-<100%)
12,O=C(N/N=C1\CCCc2cccnc21)c1cc2ccccc2s1 [Compound 24],A (A<50%)
13,C/C(=N\NC(=O)c1cccc(C)c1O)c1ccc2ccccc2n1 [Compound 82],C (C 100-<150%)
14,O=C(N/N=C1\CCCc2cccnc21)c1cc2c(s1)-c1ccccc1OC2 [Compound 25],B (B 50-<100%)
15,Cc1ccccc1C(=O)N/N=C1\CCCc2cccnc21 [Compound 18],B (B 50-<100%)
16,Cc1cccc(C(=O)NN=C(c2cccc(C)n2)c2cccc(C)n2)c1 [Compound 133],C (C 100-<150%)
17,C/C(=N\NC(=O)c1ccccc1Cl)c1cccc(C)n1 [Compound 67],C (C 100-<150%)
18,O=C(N/N=C1\CCCc2cccnc21)c1cccc(Cl)c1 [Compound 16],A (A<50%)
19,Cc1cccc(C(=O)N/N=C(/c2ncccn2)C(C)C)c1 [Compound 51],B (B 50-<100%)
20,C/C(=N\NC(=O)c1ccccc1O)c1nc2ccccc2s1 [Compound 104],D (D>150%)
21,C/C(=N\NC(=O)c1cccc(C)c1O)c1cccc(C)n1 [Compound 65],B (B 50-<100%)
22,C/C(=N\NC(=O)c1ccccc1O)c1nc(C)cs1 [Compound 94],C (C 100-<150%)
23,C/C(=N\NC(=O)c1ccccc1C)c1cc(C)ccn1 [Compound 74],B (B 50-<100%)
24,COc1ccc(C(=O)N/N=C(\C)c2ccc3ccccc3n2)cc1OC [Compound 77],C (C 100-<150%)
25,"COc1cc(C(=O)NN=C(c2cccc(C)n2)c2cccc(C)n2)ccc1O [Compound 130, N′-(bis(6-Methylpyridin-2-yl)methylene)-4-hydroxy-3-methoxybenzohydrazide]",A (A<50%)
26,COc1ccc(C(=O)N/N=C2/c3ncccc3CCC2(C)C)cc1OC [Compound 26],A (A<50%)
